Measurements as given in patent publication US20110124626A1, “BENZAZEPINE DERIVATIVES AND THEIR USE AS HISTAMINE H3 ANTAGONISTS” (TAKEDA PHARMACEUTICAL COMPANY LIMITED, priority 2008, published 2011).

Assays:
human H3 receptor [1] = biological target: T1, human H3 receptor (Homo sapiens, UniProt Q9Y5N1); experiment: In vitro H3 binding assay (3H-N-α-methyl-histamine competition binding); details: membranes of CHO-K1 cells expressing human H3 receptor; 2 nM 3H-NαMH; read-out: hH3 binding IC50
T1 construct: expressed in transfected cells
Protocol: The ability of compounds to bind to the H3 receptor was determined by measuring the reduction in tritiated N-α-methyl-histamine (^3H—NαMH) binding in a competition binding assay. Changes in the levels of bound radio-label were monitored by scintillation counting with a Trilux Microbeta (Perkin Elmer).
Membranes were prepared from CHO-K1 cells stably expressing human H3 receptor; routinely grown as monolayers in Ham's F12 medium (Invitrogen) supplemented with 10% Foetal Clone 111 (Hyclone), 500 μg/ml G418 (Invitrogen), 5 μg/ml blasticidine S (Invivogen) and […] Gentamicin (Sigma) in 5% CO2 at 37° C. Cells were grown to 80-95% confluency, rinsed once with 1×PBS (Invitrogen) and detached by incubating with 1×PBS containing 0.02% EDTA (Sigma) for 10 minutes at room temperature. Cells were collected by centrifugation at 900×g, 4° C. for 10 minutes. Cells were rinsed once with 1×PBS and re-suspended in ice cold homogenisation buffer (50 mM Tris-HCl (pH 7.4), 2.5 mM EDTA, 5 mM MgCl2, 200 mM Sucrose) at 1×10^7 cells/ml and kept on ice. Cells were homogenised on ice and debris removed by centrifugation at 500×g, 4° C. for 5 minutes. The resulting supernatant was centrifuged at 75,600×g, 4° C. for 60 minutes. Membranes were suspended in homogenisation buffer, protein concentration was determined (BCA Protein Assay kit (Pierce)), diluted to 2.2 mg/ml, dispensed into 1 ml aliquots and stored at −80° C.
Membranes were thawed on ice, sonicated with 4 cycles of 20 pulses (50% amplitude, 0.5 pulse) (UP200S Hielscher) on ice, diluted in assay buffer (50 mM Tris-HCl (pH7.4), 5 mM MgCl2) to 62.5 μg/ml. Compound was serially diluted in DMSO before being diluted 1:10 with assay buffer. 5 μg of membrane in 80 μl of assay buffer was added per well of a 96 well polystyrene plate (Corning). […] of compound was added per well. The assay was initiated by the addition of 10 μl of 20 nM ^3H—NαMH per well and incubated for one hour at room temperature with shaking. Total binding was determined in the presence of 1% DMSO and non-specific binding was determined by the inclusion of 1 μM R-α-methyl-histamine (RαMH). Incubations were then filtered through filtermat A (Perkin Elmer) and washed three times with assay buffer. Filtermats were dried at 42° C. for two hours, scintillant added and the level of bound radioactivity determined.
IC50 values for compounds were determined from seven point log scale dose-response studies and represent the concentration of compound required to inhibit 50% of the specific binding of 2 nM ^3H—NαMH (difference between total and non-specific binding). Curves were generated using the average of duplicate wells for each data point and analyzed using nonlinear regression of sigmoidal dose response (variable slope).

human H3 receptor [2] = biological target: T1, human H3 receptor; experiment: In vitro H3 functional assay (cAMP response element driven luciferase reporter); format: cell-based; details: CHO(dhfr+)-cre-luc cells expressing human H3 receptor; RαMH 10 nM, forskolin 1 μM; read-out: hH3 functional IC50
Protocol: The functional activity of compounds at the H3 receptor was determined by measuring changes in the level of intracellular cAMP using a cAMP response element driven luciferase reporter assay. The changes in luciferase expression were monitored by a luminescence plate reader, Analyst HT (MDS Analytical). Increases in intracellular cAMP were readily detected upon activation of protein kinase A by forskolin (Sigma) and suppression of this response observed with the application of the H3 receptor agonist RαMH (Sigma).
CHO(dhfr^+)-cre-luc cells stably expressing human H3 receptor were routinely grown as monolayers in Minimal Essential Medium α (MEMα) (Invitrogen) supplemented with 10% dialysed FBS (Hyclone), in 5% CO2 at 37° C. 48 hours prior to assay, cells were seeded in clear-base white walled 384-well plates (Corning) at a density of 5000 cells/well. On the day of assay, growth media was removed and replaced with […] of assay buffer (MEMα, 5 mg/ml fatty acid free BSA (Sigma)) per well. Cells were then incubated for 30 minutes at 37° C., 5% CO2. Compound was serially diluted in DMSO before being diluted 1:10 with assay buffer. 2.5 of compound diluted in assay buffer was added and cells incubated for 5 minutes at 37° C., 5% CO2. 2.5 μl of each reagent was then added in the following order: RαMH (10 nM), isobutylmethylxanthine (1-methyl-3-(2-methylpropyl)-7H-purine-2,6-dione; IBMX) (500 μM) (Sigma) and forskolin (1 μM). Cells were then incubated for 90 minutes at 37° C., 5% CO2, followed by 30 minutes at room temperature. At the end of incubation 25 μl of Steadylite reagent (Perkin Elmer) was added, plates were sealed and placed on a shaker for 5 minutes. The level of light output to determine the level of luciferase expression was then measured.
IC50 values for compounds were determined from ten point half log scale dose-response studies and represent the concentration of compound required to […] 50% inhibition of forskolin stimulated cells in the presence of RαMH alone. Curves were generated using the average of duplicate wells for each data point and analyzed using nonlinear regression of four parameter dose response.

T1 sequence (Q9Y5N1 whole entry): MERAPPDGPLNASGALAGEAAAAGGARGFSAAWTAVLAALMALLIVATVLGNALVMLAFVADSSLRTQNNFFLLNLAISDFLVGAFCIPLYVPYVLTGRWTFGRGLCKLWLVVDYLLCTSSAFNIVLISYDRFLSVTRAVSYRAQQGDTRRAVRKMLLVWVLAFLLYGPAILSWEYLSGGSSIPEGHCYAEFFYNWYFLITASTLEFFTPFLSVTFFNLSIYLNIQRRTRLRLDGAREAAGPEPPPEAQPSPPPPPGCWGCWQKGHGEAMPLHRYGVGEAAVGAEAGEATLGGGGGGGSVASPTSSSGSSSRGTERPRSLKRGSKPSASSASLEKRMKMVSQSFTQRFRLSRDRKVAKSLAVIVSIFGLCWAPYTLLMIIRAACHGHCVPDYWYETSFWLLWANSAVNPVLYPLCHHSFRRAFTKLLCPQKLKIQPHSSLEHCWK

Row | Structure (SMILES) | IC50 (human H3 receptor [1]) [nM] | IC50 (human H3 receptor [2]) [nM]
1 | CCC(=O)N1CCC(CC(O)Cc2ccc3c(c2)CCN(C2CCC2)CC3)CC1 (single isomer, unassigned) [Example 233, 1-(4-(3-(3-cyclobutyl-2,3,4,5-tetrahydro-1H-benzo[d]azepin-7-yl)-2-hydroxypropyl)piperidin-1-yl)propan-1-one] | 2 | 16
2 | CCC(=O)N1CCC[C@H](CC(O)Cc2ccc3c(c2)CCN(C2CCC2)CC3)C1 (single isomer, unassigned) [Example 251] | 11 | 6
3 | CCC(=O)N1CCC(C)(C(O)Cc2ccc3c(c2)CCN(C2CCC2)CC3)CC1 (single isomer, unassigned) [Example 257, 1-{4-[2-(3-cyclobutyl-2,3,4,5-tetrahydro-1H-3-benzazepin-7-yl)-1-hydroxyethyl]-4-methylpiperidin-1-yl}propan-1-one] | 25 | 7
4 | Cn1nccc1CNC(=O)c1ccc2c(c1)CCN(C1CCC1)CC2 [Example 1, 3-cyclobutyl-N-((1-methyl-1H-pyrazol-5-yl)methyl)-2,3,4,5-tetrahydro-1H-benzo[d]azepine-7-carboxamide] | 1 | 0.7
5 | O=C(NCC1CCNCC1)c1ccc2c(c1)CCN(C1CCC1)CC2 [Example 5, 3-Cyclobutyl-N-(piperidin-4-ylmethyl)-2,3,4,5-tetrahydro-1H-benzo[d]azepine-7-carboxamide] | 22 | 31
6 | O=C(NCc1cccnc1)c1ccc2c(c1)CCN(C1CCCC1)CC2 [Example 20, 3-Cyclopentyl-N-(pyridin-3-ylmethyl)-2,3,4,5-tetrahydro-1H-benzo[d]azepine-7-carboxamide] | 11 | 3
7 | O=C(NCc1ccccc1)c1ccc2c(c1)CCN(C1CCC1)CC2 [Example 23, N-Benzyl-3-cyclobutyl-2,3,4,5-tetrahydro-1H-benzo[d]azepine-7-carboxamide] | 11 | 2
8 | CNC(=O)c1ccc2c(c1)CCN(C1CCC1)CC2 [Example 24, 3-Cyclobutyl-N-methyl-2,3,4,5-tetrahydro-1H-benzo[d]azepine-7-carboxamide] | 44 | 16
9 | O=C(NC1CCCC1)c1ccc2c(c1)CCN(C1CCC1)CC2 [Example 29, 3-Cyclobutyl-N-cyclopentyl-2,3,4,5-tetrahydro-1H-benzo[d]azepine-7-carboxamide] | 13 | 8
10 | O=C(NCC1CCCCC1)c1ccc2c(c1)CCN(C1CCC1)CC2 [Example 34, 3-Cyclobutyl-N-(cyclohexylmethyl)-2,3,4,5-tetrahydro-1H-benzo[d]azepine-7-carboxamide] | 26 | 5
11 | O=C(NCC1CCOCC1)c1ccc2c(c1)CCN(C1CCC1)CC2 [Example 35, 3-Cyclobutyl-N-((tetrahydro-2H-pyran-4-yl)methyl)-2,3,4,5-tetrahydro-1H-benzo[d]azepine-7-carboxamide] | 11 | 1
12 | O=C(NCC1CCCO1)c1ccc2c(c1)CCN(C1CCC1)CC2 (stereo not drawn) [Example 36, 3-cyclobutyl-N-((tetrahydrofuran-2-yl)methyl)-2,3,4,5-tetrahydro-1H-benzo[d]azepine-7-carboxamide] | 12 | 2
13 | O=C(NCc1ccncc1)c1ccc2c(c1)CCN(C1CCC1)CC2 [Example 40, 3-Cyclobutyl-N-(pyridin-4-ylmethyl)-2,3,4,5-tetrahydro-1H-benzo[d]azepine-7-carboxamide] | 3 | 2
14 | O=C(NCc1cccnc1)c1ccc2c(c1)CCN(C1CCC1)CC2 [Example 42, 3-Cyclobutyl-N-(pyridin-3-ylmethyl)-2,3,4,5-tetrahydro-1H-benzo[d]azepine-7-carboxamide] | 9 | 30
15 | Nc1ncccc1CNC(=O)c1ccc2c(c1)CCN(C1CCC1)CC2 [Example 44, N-((2-Aminopyridin-3-yl)methyl)-3-cyclobutyl-2,3,4,5-tetrahydro-1H-benzo[d]azepine-7-carboxamide] | 14 | 3
16 | CNC(=O)c1ccc(CNC(=O)c2ccc3c(c2)CCN(C2CCC2)CC3)cc1 [Example 53, 3-Cyclobutyl-N-(4-(methylcarbamoyl)benzyl)-2,3,4,5-tetrahydro-1H-benzo[d]azepine-7-carboxamide] | 51 | 6
17 | O=C(NCc1cccc(C(F)(F)F)c1)c1ccc2c(c1)CCN(C1CCC1)CC2 [Example 59, 3-Cyclobutyl-N-(3-(trifluoromethyl)benzyl)-2,3,4,5-tetrahydro-1H-benzo[d]azepine-7-carboxamide] | 6 | 3
18 | O=C(NCc1cccc(-n2cncn2)c1)c1ccc2c(c1)CCN(C1CCC1)CC2 [Example 68, N-(3-(1H-1,2,4-Triazol-1-yl)benzyl)-3-cyclobutyl-2,3,4,5-tetrahydro-1H-benzo[d]azepine-7-carboxamide] | 1 | 3
19 | O=C(NCc1cccc(-c2nccs2)c1)c1ccc2c(c1)CCN(C1CCC1)CC2 [Example 69, 3-Cyclobutyl-N-(3-(thiazol-2-yl)benzyl)-2,3,4,5-tetrahydro-1H-benzo[d]azepine-7-carboxamide] | 2 | 0.5
20 | O=C(NCc1cccc(Cn2cccn2)c1)c1ccc2c(c1)CCN(C1CCC1)CC2 [Example 70, N-(3-((1H-Pyrazol-1-yl)methyl)benzyl)-3-cyclobutyl-2,3,4,5-tetrahydro-1H-benzo[d]azepine-7-carboxamide] | 5 | 3
21 | O=C(NCc1c[nH]c2ccccc12)c1ccc2c(c1)CCN(C1CCC1)CC2 [Example 72, N-((1H-Indol-3-yl)methyl)-3-cyclobutyl-2,3,4,5-tetrahydro-1H-benzo[d]azepine-7-carboxamide] | 1 | 2
22 | Cn1nc(CNC(=O)c2ccc3c(c2)CCN(C2CCC2)CC3)c2ccccc21 [Example 73, 3-Cyclobutyl-N-((1-methyl-1H-indazol-3-yl)methyl)-2,3,4,5-tetrahydro-1H-benzo[d]azepine-7-carboxamide] | 12 | 1
23 | O=C(NCc1ccc2[nH]ccc2c1)c1ccc2c(c1)CCN(C1CCC1)CC2 [Example 74, N-((1H-Indol-5-yl)methyl)-3-cyclobutyl-2,3,4,5-tetrahydro-1H-benzo[d]azepine-7-carboxamide] | 3 | 1
24 | Cn1ccc2c(CNC(=O)c3ccc4c(c3)CCN(C3CCC3)CC4)cccc21 [Example 77, 3-Cyclobutyl-N-((1-methyl-1H-indol-4-yl)methyl)-2,3,4,5-tetrahydro-1H-benzo[d]azepine-7-carboxamide] | 3 | 1
